# Experimental data published in publication PMC9873984, “Membrane cholesterol regulates inhibition and substrate transport by the glycine transporter, GlyT2” (Life Science Alliance, 2023).
# Substitutions are numbered along the chain they refer to.
# Tests used:
# GlyT2 F515W mutant = molecular target: T1, GlyT2 F515W mutant (Homo sapiens, UniProt Q9Y345, F515W); details: read-out: Glycine EC50; F515W (TM7)
# T1 sequence (Q9Y345 1-797 F515W): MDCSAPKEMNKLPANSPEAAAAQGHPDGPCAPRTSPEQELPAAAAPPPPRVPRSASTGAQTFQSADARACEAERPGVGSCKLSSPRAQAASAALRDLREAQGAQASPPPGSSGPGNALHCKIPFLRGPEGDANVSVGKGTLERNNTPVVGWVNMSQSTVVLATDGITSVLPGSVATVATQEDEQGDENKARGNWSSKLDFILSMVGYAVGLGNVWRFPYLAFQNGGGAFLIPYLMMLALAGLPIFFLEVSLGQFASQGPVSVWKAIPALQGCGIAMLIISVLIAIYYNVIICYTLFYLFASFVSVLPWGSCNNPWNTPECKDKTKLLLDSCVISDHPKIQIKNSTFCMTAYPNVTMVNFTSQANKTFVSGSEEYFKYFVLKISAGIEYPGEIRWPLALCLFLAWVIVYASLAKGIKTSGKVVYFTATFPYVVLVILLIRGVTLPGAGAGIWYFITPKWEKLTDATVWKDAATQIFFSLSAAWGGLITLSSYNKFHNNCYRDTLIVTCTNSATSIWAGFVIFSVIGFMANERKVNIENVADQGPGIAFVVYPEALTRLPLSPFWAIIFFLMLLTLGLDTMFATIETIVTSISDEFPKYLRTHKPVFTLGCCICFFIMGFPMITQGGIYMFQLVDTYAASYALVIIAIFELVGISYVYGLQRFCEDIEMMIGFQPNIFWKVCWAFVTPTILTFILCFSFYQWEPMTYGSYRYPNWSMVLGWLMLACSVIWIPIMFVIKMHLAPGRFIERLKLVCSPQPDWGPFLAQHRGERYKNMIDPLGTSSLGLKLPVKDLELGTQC
# Source text: (§1) GlyT2a (referred to herein as GlyT2) was subcloned into the plasmid oocyte transcription vector (pOTV) for expression in Xenopus laevis oocytes. Oligonucleotide primers incorporating desired mutations were synthesized by Sigma-Aldrich and used to generate point mutations in the GlyT2 cDNA/pOTV construct using the Q5 site-directed mutagenesis kit (New England Biolabs [Genesearch]). Amplified PCR products were transformed into chemically competent E. coli cells and purified using the GeneJET Plasmid Miniprep Kit (Thermo Fisher Scientific). Purified plasmid DNA was sequence-verified by the Australian Genome Research Facility. pOTV constructs were linearized with the restriction enzyme SpeI (New England Biolabs [Genesearch]), and RNA was transcribed by T7 RNA polymerase using the mMESSAGE mMACHINE T7 kit (Thermo Fisher Scientific).
# (§2) The transport activity of GlyT2 is an electrogenic process as it couples the transport of glycine to the co-transport of 3 Na^+ and 1 Cl^− and thus can be measured using two-electrode voltage-clamp electrophysiology. Oocytes expressing GlyTs were voltage-clamped at −60 mV, and glycine-induced whole-cell currents were measured using a GeneClamp 500 amplifier (Axon Instruments), and a PowerLab 2/26 chart recorder (ADInstruments) and LabChart Software (ADInstruments).
# (§3) Functionality of WT and mutant GlyT2 transporters was assessed by applying increasing concentrations of glycine (1–3,000 µM) in ND96 until a stable current was achieved. Glycine concentrations were applied individually and completely removed from the system via washing with recording buffer before proceeding to the next concentration. EC50 values for each transporter were determined by fitting concentration–response data to the modified Michaelis–Menten equation: I=([Gly].Imax)/(EC50+[Gly]), where I is current in nA, [Gly] is the concentration of glycine, Imax is the current generated by a maximal concentration of glycine, and EC50 is the concentration of glycine that generates a half-maximal current.
# GlyT2 T512A mutant = molecular target: T2, GlyT2 T512A mutant (Homo sapiens, UniProt Q9Y345, T512A)
# T2 sequence (Q9Y345 1-797 T512A): T1 sequence (Q9Y345 1-797 F515W) with T512A, W515F
# Source text: as §1, §2, §3
smiles,measurement,setting,value
"NCC(=O)O [Glycine, glycine]",EC50,GlyT2 F515W mutant,7.6 µM
same,Reduction in apparent glycine affinity compared to WT,GlyT2 T512A mutant; T512A vs WT,4.8 fold
same,EC50,"GlyT2 T512A mutant; read-out: Glycine EC50, T512A (TM7)",90 µM
